Assay [1] deals with Human immunodeficiency virus type 1 reverse transcriptase (Human immunodeficiency virus 1) (UniProt Q72547). Briefly: (§1) Inhibition of recombinant reverse transcriptase (RT) in cell-free Quan-T-RT assay system.
The target in assay [2] is Human immunodeficiency virus type 1 reverse transcriptase (Human immunodeficiency virus 1, UniProt Q72547). Described as §1.
Assay [3] can be described thus: Ability to inhibit the replication of HTLV IIIb strain of HIV-1 p24 antigen production in PBMC. Conditions: Homo sapiens. Type of assay: functional.
Assay [4] can be described thus: Ability to inhibit the replication of RT-MDR (V106A) strain of HIV-1 p24 antigen production in PBMC. Conditions: Homo sapiens. Type of assay: functional.
A short description of assay [5]: Ability to inhibit the replication of A17 variant (Y181C,K103N) strain of HIV-1 p24 antigen production in PBMC. Type of assay: functional, Homo sapiens.
A short description of assay [6]: Ability to inhibit the replication of A17 (Y181C) strain of HIV-1 p24 antigen production in PBMC. The format is functional. Conditions: Homo sapiens.
The nature of assay [7]: Cytotoxic concentration was evaluated using microculture tetrazolium assay (MTA). Conditions: Homo sapiens. The format is functional.
Assay [8] in a line: Cytotoxicity was evaluated using microculture tetrazolium assay (MTA). Type of assay: functional. Conditions: Homo sapiens.

As for `S=C(NCCc1ccc2c(c1)OCO2)Nc1ccc(Br)cn1`, the 90% effect concentration (IC90) in assay [1] is greater than 100000 nM. Also, the half-inhibitory concentration (IC50) in assay [2] was 700 nM.
`S=C(NCCc1cccs1)Nc1ccc(Br)cn1`: the IC50 in assay [3] was determined as 30 nM; in assay [4], 4 nM; in assay [5], 3300 nM; in assay [6], 48 nM; in assay [2] it was 800 nM. Moreover, the 50% cytotoxic concentration (CC50) in assay [7] was greater than 100000 nM. Besides, the 90% effect concentration (IC90) in assay [1] came to 15000 nM.
For `CC(C)Nc1cccnc1N1CCN(C(=O)c2cc3cc(NS(C)(=O)=O)ccc3[nH]2)CC1` [DELAVIRDINE], the half-inhibitory concentration (IC50) in assay [3] is 9 nM; in assay [4], 400 nM; in assay [5] it was greater than 100000 nM; in assay [6] it was 50000 nM. Further, in assay [7], the midpoint of cytotoxicity, the CC50, lay at 3600 nM.
For the compound `S=C(NCCN1CCCCC1)Nc1ccc(Br)cn1`, the concentration for half-maximal inhibition (IC50) is 1 nM in assay [3]; greater than 100000 nM in assay [4]; greater than 100000 nM in assay [5]; greater than 100000 nM in assay [6]; 600 nM in assay [2]. This compound also gave a CC50 in assay [7] greater than 100000 nM.
As for `S=C(NCCc1c[nH]cn1)Nc1ccc(Br)cn1`, the IC90 in assay [1] was greater than 100000 nM.
In the case of `S=C(NCCN1CCOCC1)Nc1ccc(Br)cn1`, the concentration for an effect of 90% (IC90) in assay [1] was greater than 100000 nM. Further, in assay [2], the concentration for half-maximal inhibition (IC50) is greater than 100000 nM.
Turning to `S=C(NCCc1ccco1)Nc1ccc(Br)cn1`, the 90% effect concentration (IC90) in assay [1] was greater than 100000 nM. Besides, the concentration for half-maximal inhibition (IC50) in assay [2] came out at 1200 nM.
`S=C(NCCc1cnc[nH]1)Nc1ccc(Br)cn1`: the 50% inhibitory concentration (IC50) in assay [2] was greater than 100000 nM.
As to `S=C(NCCc1ccccn1)Nc1ccc(Br)cn1` [TROVIRDINE], the 50% inhibitory concentration (IC50) in assay [3] was 7 nM; in assay [4] it was 20 nM; in assay [5] it was greater than 100000 nM; in assay [6], 500 nM; in assay [2] it was 600 nM. This compound registered a CC50 in assay [7] greater than 100000 nM. Further, the concentration for an effect of 90% (IC90) in assay [1] came to 12000 nM.
For `Cc1cn([C@H]2C[C@H](N=[N+]=[N-])[C@@H](CO)O2)c(=O)[nH]c1=O` [ZIDOVUDINE], the 50% inhibitory concentration (IC50) is 200 nM in assay [4], 4 nM in assay [5], 6 nM in assay [6] and greater than 100000 nM in assay [2]. The compound further came in with a CC50 in assay [7] greater than 100000 nM.
In the case of `CN1CCCC1CC/N=C(\S)Nc1ccc(Br)cn1` (stereo unspecified), the 90% effect concentration (IC90) in assay [1] was greater than 100000 nM. In addition, the half-maximal inhibitory concentration (IC50) in assay [2] is greater than 100000 nM.
Turning to `S=C(NCCc1c[nH]c2ccccc12)Nc1ccc(Br)cn1`, the IC90 in assay [1] was greater than 100000 nM. Besides, the IC50 in assay [2] was 900 nM.
Regarding `Cc1ccnc2c1NC(=O)c1cccnc1N2C1CC1` [NEVIRAPINE], the half-maximal inhibitory concentration (IC50) in assay [3] was 34 nM; in assay [4], 5000 nM; in assay [5] it was greater than 100000 nM; in assay [6], greater than 100000 nM. The compound further gave a CC50 in assay [7] of 10500 nM.
As to `S=C(NCCN1CCCC1)Nc1ccc(Br)cn1`, in assay [1], the IC90 was greater than 100000 nM. Besides, in assay [2], the IC50 amounted to 4900 nM.
`Fc1ccccc1CC/N=C(\S)Nc1ccc(Br)cn1`: the IC50 is less than 1 nM in assay [3], 5 nM in assay [4], 41000 nM in assay [5] and 200 nM in assay [6]. This compound returned a CC50 in assay [8] greater than 100000 nM.
In turn, `CCOCn1c(Cc2ccccc2)c(C(C)C)c(=O)[nH]c1=O` [EMIVIRINE] gave an IC50 in assay [4] of 270 nM. Moreover, the CC50 in assay [7] was greater than 100000 nM.

For the origin of these results see ChEMBL document CHEMBL1132503, “N'-[2-(2-thiophene)ethyl]-N'-[2-(5-bromopyridyl)] thiourea as a potent inhibitor of NNI-resistant and multidrug-resistant human immunodeficiency virus-1” (Bioorg Med Chem Lett, 1999).
